Drawing on article PMC11995724, “Antibiotic target discovery by integrated phenotypic and activity-based profiling of electrophilic fragments” (Cell chemical biology, 2025), this text covers viability for 47 compounds.

The nature of this series: in vitro. Particulars: human, hek293t cells.
For the compound `CCOc1ccc(C=C(C#N)C(=O)Nc2cccc3ncccc23)cc1` [8-A07, 2-cyano-3-(4-ethoxyphenyl)-N-(quinolin-5-yl)prop-2-enamide], the viability at 48 h, 25 µM turned out to be 60.7%. With `CC(Cl)C(=O)N(Cc1ccccc1)Cc1ccccc1` (centres unmarked) [5-K19, N,N-dibenzyl-2-chloropropanamide], the viability at 48 h, 25 µM came out at 82.1%.

In the case of `Cc1nc(C#N)c(N2CCN(C(=O)CCl)CC2)o1` [5-L18, 5-[4-(2-chloroacetyl)piperazin-1-yl]-2-methyl-1,3-oxazole-4-carbonitrile], the viability at 48 h, 25 µM is 1.74%.

With `C=CC(=O)N1CCC(C(=O)NC2(Cc3ccccc3)CCCC2)CC1` [3-H12, N-(1-benzylcyclopentyl)-1-(prop-2-enoyl)piperidine-4-carboxamide], the viability at 48 h, 25 µM came to 83.4%. Regarding `O=C(CCl)N(Cc1ccco1)c1ccccc1` [4-L14, 2-chloro-N-[(furan-2-yl)methyl]-N-phenylacetamide], the viability at 48 h, 25 µM stood at 1.2%. Take `C=CC(=O)N1CCCC(c2nn(C)cc2C(N)=O)C1` (centres unmarked) [1-D07, 1-methyl-3-[1-(prop-2-enoyl)piperidin-3-yl]-1H-pyrazole-4-carboxamide]: the viability at 48 h, 25 µM amounted to 107%. For `CCNC(=O)C(C#N)=Cc1c(N2CCOCC2)nc2ccccn2c1=O` [9-O06, 2-cyano-N-ethyl-3-[2-(morpholin-4-yl)-4-oxo-4H-pyrido[1,2-a]pyrimidin-3-yl]prop-2-enamide], the viability at 48 h, 25 µM is 137%. As for `Cc1ccc(C=C(C#N)C(=O)Nc2cccc3ncccc23)cc1` [9-J05, 2-cyano-3-(4-methylphenyl)-N-(quinolin-5-yl)prop-2-enamide], the viability at 48 h, 25 µM came to 123%. As for `CC(c1cccc(NC(=O)c2ccccc2)c1)N(C)C(=O)CCl` (centres unmarked) [6-M22, N-{3-[1-(2-chloro-N-methylacetamido)ethyl]phenyl}benzamide], the figure is 0.237%. Regarding `N#CC(C(=O)CCl)=C(c1ccc(F)cc1)N1CCOCC1` [10-C20, 4-chloro-2-[(4-fluorophenyl)(morpholin-4-yl)methylidene]-3-oxobutanenitrile], the viability at 48 h, 25 µM was determined as 53.6%. Turning to `CC(=O)N1c2ccc(C(=O)CCl)cc2CC1C` (centres unmarked) [10-I20, 1-(1-acetyl-2-methyl-2,3-dihydro-1H-indol-5-yl)-2-chloroethan-1-one], the viability at 48 h, 25 µM is 3.53%. In the case of `C=CC(=O)N(C)Cc1cn(C2CC2)cn1` [2-J13, N-[(1-cyclopropyl-1H-imidazol-4-yl)methyl]-N-methylprop-2-enamide] it was 76.5%; in that of `C=CC(=O)N1CCC(n2nc(C)nc2O)CC1` [3-P21, 1-[4-(5-hydroxy-3-methyl-1H-1,2,4-triazol-1-yl)piperidin-1-yl]prop-2-en-1-one], 49.8%. For the compound `Cc1cc(C=C(C#N)C(=O)N2CC[C@H](O)C2)c(C)n1CC1CCCO1` (stereo partly drawn) [9-P04, 3-{2,5-dimethyl-1-[(oxolan-2-yl)methyl]-1H-pyrrol-3-yl}-2-[(3S)-3-hydroxypyrrolidine-1-carbonyl]prop-2-enenitrile], the viability at 48 h, 25 µM was 131%. As for `C=CC(=O)Nc1cnn(C2CCCC2)c1` [3-O21, N-(1-cyclopentyl-1H-pyrazol-4-yl)prop-2-enamide], the viability at 48 h, 25 µM worked out at 70.5%. On to `N#CC(=Cc1ccccc1)C(=O)Nc1nncs1` [8-K09, 2-cyano-3-phenyl-N-(1,3,4-thiadiazol-2-yl)prop-2-enamide], for which the viability at 48 h, 25 µM was found to be 94.2%. In the case of `COc1ccc(C=C(C#N)C(=O)Nc2ccccc2C(=O)O)cc1O` [9-A18, 2-[2-cyano-3-(3-hydroxy-4-methoxyphenyl)prop-2-enamido]benzoic acid] it was 104%; in that of `C=CC(=O)N(C)CC(=O)N1CCC(C)(c2nc(C)no2)CC1` [2-B22, N-methyl-N-{2-[4-methyl-4-(3-methyl-1,2,4-oxadiazol-5-yl)piperidin-1-yl]-2-oxoethyl}prop-2-enamide], 57.9%; in that of `CC(Cl)C(=O)NC1CCc2cnn(C(C)C)c2C1` (centres unmarked) [7-H05, 2-chloro-N-[1-(propan-2-yl)-4,5,6,7-tetrahydro-1H-indazol-6-yl]propanamide], 107%. As to `O=C(CCl)c1cn(-c2cccc(C(F)(F)F)c2)nn1` [10-C09, 2-chloro-1-{1-[3-(trifluoromethyl)phenyl]-1H-1,2,3-triazol-4-yl}ethan-1-one], the viability at 48 h, 25 µM was 2.55%. Turning to `CC(Cl)C(=O)NC1CC=CCC1` (centres unmarked) [6-K21, 2-chloro-N-(cyclohex-3-en-1-yl)propanamide], the viability at 48 h, 25 µM was 114%.

With `O=C(CCl)N1CCN(S(=O)(=O)c2ccc([N+](=O)[O-])cc2)CC1` [4-J07, 2-chloro-1-[4-(4-nitrobenzenesulfonyl)piperazin-1-yl]ethan-1-one], the viability at 48 h, 25 µM is -0.414%. `O=C(CCl)NCc1ccccc1OC1CCCC1` [6-C14, 2-chloro-N-{[2-(cyclopentyloxy)phenyl]methyl}acetamide]: the viability at 48 h, 25 µM is 2.1%. For the compound `C=CC(=O)NCCC(=O)N1CCSC(C)(C)C1` [3-G18, N-[3-(2,2-dimethylthiomorpholin-4-yl)-3-oxopropyl]prop-2-enamide], the viability at 48 h, 25 µM worked out at 101%.

On to `N#CC(=Cc1ccc(F)c(F)c1)C(=O)NC1CCCCC1` [9-J22, 2-cyano-N-cyclohexyl-3-(3,4-difluorophenyl)prop-2-enamide], for which the viability at 48 h, 25 µM was 101%. Turning to `CC(Cl)C(=O)NC(C)c1nnnn1C1CC1` (centres unmarked) [7-N21, 2-chloro-N-[1-(1-cyclopropyl-1H-1,2,3,4-tetrazol-5-yl)ethyl]propanamide], the viability at 48 h, 25 µM worked out at 75.9%. In the case of `CC(Cl)C(=O)NCc1nc(C2CC2)n[nH]1` (centres unmarked) [7-L19, 2-chloro-N-[(3-cyclopropyl-1H-1,2,4-triazol-5-yl)methyl]propanamide] it was 91.3%. For `Cc1cccc(C)c1NC(=O)C(C#N)=Cc1ccc(OC(F)F)cc1` [8-A11, 2-cyano-3-[4-(difluoromethoxy)phenyl]-N-(2,6-dimethylphenyl)prop-2-enamide], the viability at 48 h, 25 µM was found to be 56.3%. For the compound `CC(Cl)C(=O)NC(C)C(c1ccccc1Cl)n1cccn1` (centres unmarked) [6-P09, 2-chloro-N-[1-(2-chlorophenyl)-1-(1H-pyrazol-1-yl)propan-2-yl]propanamide], the viability at 48 h, 25 µM came to 119%. With `O=C(CCl)NCC1CCN(C(=O)c2ccccc2)CC1` [7-L06, N-[(1-benzoylpiperidin-4-yl)methyl]-2-chloroacetamide], the viability at 48 h, 25 µM was determined as 0.868%. Turning to `C=CC(=O)NC(c1ccc(C)cc1)C(C)S(C)(=O)=O` (centres unmarked) [2-A10, N-[2-methanesulfonyl-1-(4-methylphenyl)propyl]prop-2-enamide], the viability at 48 h, 25 µM turned out to be 100%. As for `Cn1cc(C=C(C#N)C(=O)NCCc2ccccc2)cn1` [8-L10, 2-cyano-3-(1-methyl-1H-pyrazol-4-yl)-N-(2-phenylethyl)prop-2-enamide], the figure is 101%; as for `CC(Cl)C(=O)NC1CC(=O)N(Cc2ccccc2C(F)(F)F)C1` (centres unmarked) [6-J19, 2-chloro-N-(5-oxo-1-{[2-(trifluoromethyl)phenyl]methyl}pyrrolidin-3-yl)propanamide], 108%. With `C=CC(=O)N1CCC(C(=O)N[C@H]2CCCCCC[C@H]2C(=O)OC)CC1` (racemic) [2-H06, rac-methyl (1R,2S)-2-[1-(prop-2-enoyl)piperidine-4-amido]cyclooctane-1-carboxylate], the viability at 48 h, 25 µM came out at 94.4%. Turning to `C=CC(=O)N1CCN(S(=O)(=O)c2ccc(C(C)(C)C)cc2)CC1` [3-A19, 1-[4-(4-tert-butylbenzenesulfonyl)piperazin-1-yl]prop-2-en-1-one], the viability at 48 h, 25 µM is 24.5%.

In the case of `C=CC(=O)N1CCCC(NS(=O)(=O)c2cccc(F)c2)C1` (centres unmarked) [3-G15, 3-fluoro-N-[1-(prop-2-enoyl)piperidin-3-yl]benzene-1-sulfonamide], the viability at 48 h, 25 µM turned out to be 58%. In the case of `C=CC(=O)N1CCCn2ncc(C3CC3)c21` [3-M15, 1-{3-cyclopropyl-4H,5H,6H,7H-pyrazolo[1,5-a]pyrimidin-4-yl}prop-2-en-1-one] it was 1.25%; in that of `Cc1ccc(C)c(NC(=O)C(C#N)=Cc2cccn2C)c1` [8-M07, 2-cyano-N-(2,5-dimethylphenyl)-3-(1-methyl-1H-pyrrol-2-yl)prop-2-enamide], 87.8%. As to `C=CC(=O)N(CC)CC(=O)NC1CCN(C(C)=O)c2ccccc21` (centres unmarked) [2-N06, N-{[(1-acetyl-1,2,3,4-tetrahydroquinolin-4-yl)carbamoyl]methyl}-N-ethylprop-2-enamide], the viability at 48 h, 25 µM was determined as 99.7%. Consider `C=CC(=O)NCc1coc(-c2cccs2)n1` [1-C07, N-{[2-(thiophen-2-yl)-1,3-oxazol-4-yl]methyl}prop-2-enamide], for which the viability at 48 h, 25 µM came to 70.1%. For the compound `C=CC(=O)NC1CCCN(c2cc(N3CCOCC3)ncn2)C1` (centres unmarked) [1-A08, N-{1-[6-(morpholin-4-yl)pyrimidin-4-yl]piperidin-3-yl}prop-2-enamide], the viability at 48 h, 25 µM was 103%.

For `COc1cccc(NC(=O)CN(C)C(=O)CCl)c1` [5-A03, 2-chloro-N-{[(3-methoxyphenyl)carbamoyl]methyl}-N-methylacetamide], the viability at 48 h, 25 µM came out at 0.139%. For `C=CC(=O)N1CCC(Cc2nc(CC)no2)CC1` [3-A11, 1-{4-[(3-ethyl-1,2,4-oxadiazol-5-yl)methyl]piperidin-1-yl}prop-2-en-1-one], the viability at 48 h, 25 µM is 60.7%. For the compound `O=C(CCl)N1CCCSc2ccccc21` [4-E16, 2-chloro-1-(2,3,4,5-tetrahydro-1,5-benzothiazepin-5-yl)ethan-1-one], the viability at 48 h, 25 µM stood at 0.703%. In the case of `CC(C)C(=O)Nc1ccc(C(=O)CCl)cc1` [10-D04, N-[4-(2-chloroacetyl)phenyl]-2-methylpropanamide] it was 30.8%; in that of `Cc1ccc(C=C(C#N)C(=O)Nc2ccc(C(=O)O)cc2)o1` [8-C14, 4-[2-cyano-3-(5-methylfuran-2-yl)prop-2-enamido]benzoic acid], 109%; in that of `C=CC(=O)N[C@H]1CCCC[C@H]1n1cc(C(C)(C)O)nn1` [1-P07, N-[(1S,2R)-2-[4-(2-hydroxypropan-2-yl)-1H-1,2,3-triazol-1-yl]cyclohexyl]prop-2-enamide], 128%.

Usually viability stands for a read-out of living cells in per cent, often relative to untreated cells.
